B1: MBP: myelin basic protein, a negative control (protein, UniProt P02686 1-304, looked up)
Myelin basic protein: MGNHAGKRELNAEKASTNSETNRGESEKKRNLGELSRTTSEDNEVFGEADANQNNGTSSQDTAVTDSKRTADPKNAWQDAHPADPGSRPHLIRLFSRDAPGREDNTFKDRPSESDELQTIQEDSAATSESLDVMASQKRPSQRHGSKYLATASTMDHARHGFLPRHRDTGILDSIGRFFGGDRGAPKRGSGKDSHHPARTAHYGSLPQKSHGRTQDENPVVHFFKNIVTPRTPPPSQGKGRGLSLSRFSWGAEGQRPGFGYGGRASDYKSAHKGFKGVDAQGTLSKIFKLGGRDSRSGSPMARR

Assays:
Type in all cases: cell-based, mouse
TNF-α mRNA in LN cells = test: TNF-α mRNA by real-time PCR in LN cells of GA-immunized CD-1, BALB/cByJ, SJL/J mice (Example III); settings: 6 hours
Experimental: (§1) On Day 0, mice were immunized with 250 μg GA (GMA, Mylan Pharmaceuticals, Inc.) and CFA. The GA solution (20 mg/mL) was diluted with Dulbecco's Phosphate-Buffered Saline to 5 mg/mL. The dosing formulation consisted of equal volumes of the diluted GA solution (5 mg/mL) and CFA solution, mixed until well-emulsified. Animals were weighed and allocated to groups. Animals were dosed by injection into four footpads. The injection volume per animal was 0.1 mL (about 10 μL into each front footpad, and 40 μL into each hind footpad).
(§2) Immunized animals were euthanized by cervical dislocation on Day 10 post-immunization. Lymph node cells were isolated from animals and treated with Myelin Basic Protein (MBP, a negative control), Concanavalin A (ConA, a positive control) or GA as shown in Table 16. Lymph nodes in the axillary and popliteal regions were removed aseptically in a purifier clean bench. […] The LN were then washed 3 times with −5 mL of RPMI medium, and isolated by pressing the LN with a syringe plunger. […] The cell suspension was centrifuged at about 200×g for 10 minutes at about 4° C. and re-suspended in ice cold enriched DCCM-1 medium. Cells were seeded in 96-well tissue culture plates.
(§3) LN cells isolated from GA-immunized animals were stimulated with GA (GMA, Mylan Pharmaceuticals, Inc.) at concentrations as indicated in Tables 16 and 17. A positive control was prepared by treating LN cells with 2.5 μg/mL concavalin A (ConA, a non-specific T cell stimulant). Myelin basic protein (MBP, 10 μg/mL) and enriched DCCM-1 medium served as negative controls. The cells from all groups each were stimulated with the same GA lot. Each reaction was set up in triplicate.
(§4) After incubation at about 37° C. in a humidified CO2 incubator for 6 hours, the cells were lysed for total RNA isolation. Total RNA was isolated from treated LN cells using SV 96 Total RNA Isolation System according to the manufacturer's protocol (Promega, Cat. #Z3500). Cells were washed once with Phosphate Buffered Saline (PBS) and lysed in RNA lysis buffer. The lysate was transferred to wells of the SV 96 binding plate. Samples were washed with RNA wash solution and treated with DNase. Total RNA was eluted with nuclease-free water from the binding plate.
(§5) After the reverse transcriptase reaction was completed, cDNA samples were used directly for real-time PCR to measure the response biomarker mRNA levels produced by the stimulated cells. […] All probes for target genes contained FAM dye, and probes for the internal control contained VIC®/MGB dye. Samples will be prepared and run in 96-well plates using a Real-Time PCR system (7500, Life Technologies). This system allows direct detection of PCR-product formation by measuring the increase in fluorescent emission continuously during the PCR reaction. A relative quantitation method was used to analyze changes in mouse IL-2, IL-4, IL-5, IL-10, IL-13, IFN-γ and TNF-α expression in GA-treated samples relative to the untreated control (enriched DCCM-1 treated) samples. The Real-Time PCR program was:
(§6) The levels of mouse cytokine amplicons (IL-2, IL-4, IL-5, IL-10, IL-13, mIFN-γ and TNF-α) were normalized to internal probe levels (GAPDH) from the same samples. The following equations were used to calculate the relative increase in response to GA stimulation compared to the control sample: ΔCT=CT_target−CT_reference ΔΔCT=−ΔCT_Treated−CT_VC

IL-5 mRNA in LN cells = test: IL-5 mRNA by real-time PCR in LN cells of GA-immunized CD-1, BALB/cByJ, SJL/J mice (Example III); settings: 6 hours
Experimental: as §1, §2, §3, §4, §5, §6

[1] = system: IFN-γ secreted by LN cells; test: IFN-γ secretion by GA-stimulated LN cells, MSD ELISA, 21 and 45 hr (Example II)
[2] = Group 1C: CD-1, GA-immunized, stimulation 0.3 μg/mL
[3] = Group 1C: CD-1, GA-immunized, stimulation 1 μg/mL
[4] = Group 1C: CD-1, GA-immunized, stimulation 3 μg/mL
[5] = Group 1C: CD-1, GA-immunized, stimulation 10 μg/mL
[6] = Group 2C: BALB/cByJ, GA-immunized, stimulation 0.3 μg/mL
[7] = Group 2C: BALB/cByJ, GA-immunized, stimulation 1 μg/mL
[8] = Group 2C: BALB/cByJ, GA-immunized, stimulation 3 μg/mL
[9] = Group 2C: BALB/cByJ, GA-immunized, stimulation 10 μg/mL
[10] = Group 3C: SJL/J, GA-immunized, stimulation 0.3 μg/mL
[11] = Group 3C: SJL/J, GA-immunized, stimulation 1 μg/mL
[12] = Group 3C: SJL/J, GA-immunized, stimulation 3 μg/mL
[13] = Group 3C: SJL/J, GA-immunized, stimulation 10 μg/mL
[14] = Group 1C: CD-1, GA-immunized, stimulation 2.5 μg/mL
[15] = Group 2C: BALB/cByJ, GA-immunized, stimulation 2.5 μg/mL
[16] = Group 3C: SJL/J, GA-immunized, stimulation 2.5 μg/mL
[17] = BALB/cByJ, immunized GA Intraplantar, 21 hr
[18] = BALB/cByJ, immunized GA Intraplantar, 45 hr
[19] = BALB/cByJ, immunized GA Lower Limb, 21 hr
[20] = BALB/cByJ, immunized GA Lower Limb, 45 hr
[21] = BALB/cByJ, immunized Mannitol Intraplantar, 21 hr
[22] = BALB/cByJ, immunized Mannitol Intraplantar, 45 hr
[23] = C57BL10J, immunized GA Intraplantar, 21 hr
[24] = C57BL10J, immunized GA Intraplantar, 45 hr
[25] = C57BL10J, immunized GA Lower Limb, 21 hr
[26] = C57BL10J, immunized GA Lower Limb, 45 hr
[27] = C57BL10J, immunized Mannitol Intraplantar, 21 hr
[28] = C57BL10J, immunized Mannitol Intraplantar, 45 hr
[29] = CD-1, immunized GA Intraplantar, 21 hr
[30] = CD-1, immunized GA Intraplantar, 45 hr
[31] = CD-1, immunized GA Lower Limb, 21 hr
[32] = CD-1, immunized GA Lower Limb, 45 hr
[33] = CD-1, immunized Mannitol Intraplantar, 21 hr
[34] = CD-1, immunized Mannitol Intraplantar, 45 hr

Molecule | TNF-α mRNA Expression (TNF-α mRNA in LN cells; [5]) | TNF-α mRNA Expression (TNF-α mRNA in LN cells; [9]) | TNF-α mRNA Expression (TNF-α mRNA in LN cells; [13]) | IL-5 mRNA Expression (IL-5 mRNA in LN cells; [5]) | IL-5 mRNA Expression (IL-5 mRNA in LN cells; [9]) | IL-5 mRNA Expression (IL-5 mRNA in LN cells; [13]) | IFN-γ secretion response ratio (treated cell medium to control DCCM1 medium) [1, 17] | IFN-γ secretion response ratio (treated cell medium to control DCCM1 medium) [1, 18] | IFN-γ secretion response ratio (treated cell medium to control DCCM1 medium) [1, 19] | IFN-γ secretion response ratio (treated cell medium to control DCCM1 medium) [1, 20] | IFN-γ secretion response ratio (treated cell medium to control DCCM1 medium) [1, 21] | IFN-γ secretion response ratio (treated cell medium to control DCCM1 medium) [1, 22] | IFN-γ secretion response ratio (treated cell medium to control DCCM1 medium) [1, 23] | IFN-γ secretion response ratio (treated cell medium to control DCCM1 medium) [1, 24] | IFN-γ secretion response ratio (treated cell medium to control DCCM1 medium) [1, 25] | IFN-γ secretion response ratio (treated cell medium to control DCCM1 medium) [1, 26] | IFN-γ secretion response ratio (treated cell medium to control DCCM1 medium) [1, 27] | IFN-γ secretion response ratio (treated cell medium to control DCCM1 medium) [1, 28] | IFN-γ secretion response ratio (treated cell medium to control DCCM1 medium) [1, 29] | IFN-γ secretion response ratio (treated cell medium to control DCCM1 medium) [1, 30] | further results
L-glutamic acid polymer with L-alanine, L-lysine and L-tyrosine, acetate (salt) [GA] | 1.1 fold change vs control | 0.5 fold change vs control | 0.8 fold change vs control | 5.4 fold change vs control | 3.5 fold change vs control | 4.3 fold change vs control | – | – | – | – | – | – | – | – | – | – | – | – | – | – | TNF-α mRNA Expression (TNF-α mRNA in LN cells; [2]): 1.0 fold change vs control; TNF-α mRNA Expression (TNF-α mRNA in LN cells; [3]): 1.1 fold change vs control; TNF-α mRNA Expression (TNF-α mRNA in LN cells; [4]): 1.4 fold change vs control; TNF-α mRNA Expression (TNF-α mRNA in LN cells; [6]): 0.1 fold change vs control; TNF-α mRNA Expression (TNF-α mRNA in LN cells; [7]): 1.0 fold change vs control; TNF-α mRNA Expression (TNF-α mRNA in LN cells; [8]): 0.8 fold change vs control; TNF-α mRNA Expression (TNF-α mRNA in LN cells; [10]): 0.8 fold change vs control; TNF-α mRNA Expression (TNF-α mRNA in LN cells; [11]): 0.9 fold change vs control; TNF-α mRNA Expression (TNF-α mRNA in LN cells; [12]): 0.9 fold change vs control; IL-5 mRNA Expression (IL-5 mRNA in LN cells; [2]): 1.0 fold change vs control; IL-5 mRNA Expression (IL-5 mRNA in LN cells; [3]): 1.8 fold change vs control; IL-5 mRNA Expression (IL-5 mRNA in LN cells; [4]): 3.2 fold change vs control; IL-5 mRNA Expression (IL-5 mRNA in LN cells; [6]): 0.5 fold change vs control; IL-5 mRNA Expression (IL-5 mRNA in LN cells; [7]): 1.6 fold change vs control; IL-5 mRNA Expression (IL-5 mRNA in LN cells; [8]): 2.3 fold change vs control; IL-5 mRNA Expression (IL-5 mRNA in LN cells; [10]): 0.6 fold change vs control; IL-5 mRNA Expression (IL-5 mRNA in LN cells; [11]): 2.1 fold change vs control; IL-5 mRNA Expression (IL-5 mRNA in LN cells; [12]): 5.1 fold change vs control; IFN-γ secretion, dose response to GA (in words) ([1]; LN cells from each of the three mouse strains): dose-dependent manner
Concanavalin A [ConA, reference compound] | – | – | – | – | – | – | 9.70 | 11.40 | 6.24 | 7.33 | 4.40 | 3.48 | 11.55 | 53.10 | 5.07 | 5.15 | 4.05 | 5.90 | 10.14 | 5.47 | TNF-α mRNA Expression (TNF-α mRNA in LN cells; [14]): 0.6 fold change vs control; TNF-α mRNA Expression (TNF-α mRNA in LN cells; [15]): 0.8 fold change vs control; TNF-α mRNA Expression (TNF-α mRNA in LN cells; [16]): 0.7 fold change vs control; IL-5 mRNA Expression (IL-5 mRNA in LN cells; [14]): 19.1 fold change vs control; IL-5 mRNA Expression (IL-5 mRNA in LN cells; [15]): 9.1 fold change vs control; IL-5 mRNA Expression (IL-5 mRNA in LN cells; [16]): 9.7 fold change vs control; IFN-γ secretion response ratio (treated cell medium to control DCCM1 medium) [1, 31]: 1.90; IFN-γ secretion response ratio (treated cell medium to control DCCM1 medium) [1, 32]: 1.89; IFN-γ secretion response ratio (treated cell medium to control DCCM1 medium) [1, 33]: 9.35; IFN-γ secretion response ratio (treated cell medium to control DCCM1 medium) [1, 34]: 9.68
B1 | 0.8 fold change vs control | 0.8 fold change vs control | 0.3 fold change vs control | 0.8 fold change vs control | 0.2 fold change vs control | 0.8 fold change vs control | 0.87 | 0.83 | 0.80 | 0.92 | 1.17 | 0.92 | 1.03 | 1.07 | 1.60 | 1.80 | 2.02 | 1.41 | 1.06 | 0.89 | IFN-γ secretion response ratio (treated cell medium to control DCCM1 medium) [1, 31]: 0.90; IFN-γ secretion response ratio (treated cell medium to control DCCM1 medium) [1, 32]: 2.11; IFN-γ secretion response ratio (treated cell medium to control DCCM1 medium) [1, 33]: 1.57; IFN-γ secretion response ratio (treated cell medium to control DCCM1 medium) [1, 34]: 7.22

Reference: patent publication US10344330B2, “Glatiramer acetate response biomarker mRNA potency assay” (Mylan Inc., priority 2013, dated 2019)
